Source: patent publication US6359054B1, “Polynucleotide compositions for intramuscular administration” (priority 1994, dated 2002)
“And” between values parts separate entries of the source, which are not always exact repeats. Identical values can stand only once. {C11P} = undecylphosphate group; {Acr} = acridine conjugate

Experiments:
[1] = test system: HSV-1; experiment: HSV-1 infectivity of medium of infected BHK cells; type: cell-based, Herpes Simplex Virus 1; details: oligonucleotide 3.0 μM
[2] = test system: HSV-1; design: species or system mice; details: mouse, in vivo

Question: “Free Anti-HSV: 12-chain oligonucleotide CGTTCCTCCTGU, 5′ undecylphosphate and 3′ acridine modified, complementary to HSV-1 splicing site (5' {C11P}, 3' {Acr}, sugars by position and backbone not given here)” was tested. Which “HSV-1 infectious titre n = 7” value [1] did it give?
Answer: 50(±14) × 10^2 CPE50/ml

Question: And the “% Survival” value [2]?
Answer: 7.0%

Question: And the “Survived animals/Amount of Animals in a group” value [2]?
Answer: 1/10 and 0/10
